{"source": "patent US20170348337A1", "about": "“MULTIFUNCTIONAL MEMBRANE-ACTIVE AMINOGLYCOSIDE-PEPTIDE CONJUGATES” (priority 2014, published 2017)", "key": {"E. coli ML35": {"tested_on": "E. coli ML35", "assay": "E. coli ML35 cell permeabilization assay (ONPG→ONP conversion)", "type": "cell-based", "conditions": "90 min, 37° C.", "protocol": "E. coli ML35 [lacZ-(Con) ΔlacY] cannot take up the lactose mimic ONPG unless cell membrane integrity is compromised. Upon membrane permeabilization ONPG can diffuse into the bacterial cell cytoplasm where it is hydrolyzed by β-galactosidase into galactose and ONP. Since ONP absorbs at 400 nm, the permeabilization kinetics of membrane-disrupting agents can be monitored by OD400 absorbance measurement. Methodology here was very similar to previous studies. Log-phase E. coli cells were grown as described above, washed and resuspended in 10 mM Tris supplemented with 0.01 volume (1% vol/vol) TSB at pH 7.4 (Tris-TSB). In triplicate, bacteria (5×10^6 cells/well) were exposed to various concentrations of antibiotic (Pentobra, tobramycin, Pen peptide) in the presence of 2.5 mM ONPG for 90 min at 37° C. The kinetics of ONPG hydrolysis were measured by determining the absorbance at 400 nm using a plate reader spectrophotometer.\nTo characterize the membrane activity of Pentobra on bacteria, its permeabilization kinetics were monitored on live cells by conducting an enzymatic assay for the conversion of ortho-nitrophenyl β-D-galactopyranoside (ONPG) to ortho-nitrophenol (ONP) on the E. coli strain ML35. E. coli ML35 [lacZ-(Con) ΔlacY] constitutively expresses β-galactosidase (β-gal) but lacks the lactose permease necessary for uptake of the lactose analogue ONPG. […]"}, "E. coli Dh5α persisters": {"tested_on": "E. coli Dh5α persisters", "assay": "persister cell plate killing assay", "type": "cell-based, Escherichia coli", "protocol": "Procedure for preparing S. aureus SA113 and E. coli Dh5α persister cells were based on previous protocols. Cells from freshly streaked agar plates were inoculated in 1 mL TSB and incubated 16 h at 37° C. in a shaker incubator to obtain stationary phase cultures. Non-persister cells were eliminated by adding ampicillin to a final concentration of 100 μg/mL, followed by 3 h incubation at 37° C.\nE. coli cells were pelleted (5000 rpm for 5 min), washed in M9 minimal media and resuspended in M9 minimal media to a final bacteria stock solution of 5×10^7 CFU/mL. 20 μL E. coli suspension was introduced into 180 μL M9 media containing various concentrations of antibiotic (Pentobra, tobramycin) in 96 well plates for a total of 10^6 CFU/well. The plates were sealed with parafilm, loaded onto microplate shakers and placed in a 37° C. incubator for 1.5 h. After incubation, 10-fold serial dilutions were made with M9 media. Half of each dilution (100 μL) was spotted onto LB agar plates and incubated overnight at 37° C. to yield visible colonies. The E. coli persister assays were performed in quadruplicate.\nThe bactericidal effects of Pentobra against persistent bacteria were investigated with plate killing assays. […]"}, "[1]": {"tested_on": "P. acnes clinical isolates", "assay": "P. acnes CFU assay, clinical isolates", "type": "cell-based, Propionibacterium acnes"}, "[2]": {"tested_on": "P. acnes in comedone extracts", "assay": "microcomedone assay (human comedone extracts)", "type": "cell-based, Propionibacterium acnes", "conditions": "similar drug concentrations (FIG. 11C)"}, "[3]": {"tested_on": "IL-6, IL-8, TNF-α and IL-12p40 in human monocytes", "assay": "cytokine ELISA in P. acnes-activated monocytes", "type": "cell-based", "conditions": "24 hrs co-treatment", "protocol": "Peripheral blood mononuclear cells (PBMCs) were isolated from whole blood of normal healthy donors as approved by the Institutional Review Board at UCLA using Ficoll-Paque gradients (GE Healthcare, Piscataway, N.J.) and plated onto six-well tissue culture plates (20×10^6-30×10^6 per well) for 2 hours in RPMI 1640 medium (Invitrogen Life Technologies, Carlsbad, Calif.) supplemented with 1% fetal calf serum (Omega Scientific, Tarzana, Calif.). Nonadherent cells were removed by rigorously washing three times with RPMI. Adherent monocytes were stimulated (co-treated) with media or P. acnes in the presence of tobramycin or Pentobra in 10% fetal calf serum. P. acnes was used at an MOI of 0.5 and cells were cultured for 24 hours at 37° C.\nIL-6, IL-8, Tumor necrosis factor alpha (TNF-α) and IL-12p40 levels in culture supernatants were measured by ELISA following the manufacturer's recommendations (Invitrogen). Samples were assayed in triplicates. Results are expressed as mean±SD of at least three independent experiments, with monocytes obtained from three independent donors.\nMonocytes were cultured and evaluated for cytokine and chemokine expression by ELISA and real time PCR after 24 hrs."}, "[4]": {"tested_on": "bioluminescent Staphylococcus aureus", "assay": "in vivo murine implantation (implant infection) model", "design": "species or system lysEGFP mice", "conditions": "PMMA-coated titanium disks, subcutaneous; throughout 5 days; p<0.05", "protocol": "Methods: Survival surgery was performed in which circular orthopedic-grade titanium disks were implanted subcutaneously on the backs of 25 lysEGFP mice. Disks were coated in poly-methyl-methacrylate (PMMA) cement mixed with either Pentobra, Tobramycin, or no antibiotic (control). The disks were inoculated with 1×10^7 colony-forming units (CFU) of bioluminescent Staphylococcus aureus. Bacterial burden and neutrophil inflammation were followed via bioluminescent and fluorescent imaging, respectively, on post-operative days (POD) 0, 1, 3, and 5. Implants and surrounding tissue were subsequently removed and cultured. Statistical assessment of data was performed via ANOVA analysis."}, "[5]": {"tested_on": "Vancomycin-Sensitive Enterococci (VSE)", "assay": "organism not typed", "type": "cell-based", "conditions": "read-out: MIC", "description": "Pentobra was screened against a broad panel of microbial pathogens, including strains of E. coli, MRSA, Klebsiella (Kleb), Acinetobacter (AcB), Vancomycin-Sensitive Enterococci (VSE) and Vancomycin-Resistant Enterococci (VRE), and specifically including E. faecalis samples. […] The experimenter reported the minimum inhibitory concentration (MIC) in mass units per unit volume (μg/mL) for each compound, and MIC data were converted into molar concentrations (μM) due to the large difference between the molecular weight of tobramycin (467.5 g/mol) and Pentobra (2277 g/mol)."}, "E. coli": {"tested_on": "E. coli", "assay": "antimicrobial activity (MIC) of P-L-A conjugates", "type": "cell-based"}, "P. aeruginosa": {"tested_on": "P. aeruginosa", "assay": "antimicrobial activity (MIC) of P-L-A conjugates", "type": "cell-based"}, "[6]": {"conditions": "aminoglycosides; cited from earlier work"}}, "note": "“Also recorded” adds a separate entry of the source. Like-named read-outs stand apart in the source and are kept apart here.", "data": [{"smiles": "NC[C@H]1O[C@H](O[C@H]2[C@H](O)[C@@H](O[C@H]3O[C@H](CO)[C@@H](O)[C@H](N)[C@H]3O)[C@H](N)C[C@@H]2N)[C@H](N)C[C@@H]1O", "note": "[tobramycin]", "values": [{"measurement": "inner membrane permeabilization (400 nm absorbance, ONPG→ONP)", "setting": "E. coli ML35", "result": "no membrane permeabilization occurred; also recorded: comparable to background"}, {"measurement": "killing activity against persister cells", "setting": "E. coli Dh5α persisters; 1.5 h, entire range of tested concentrations", "result": "poor activity"}, {"measurement": "activity against persisters at high concentration", "setting": "E. coli Dh5α persisters; >50 μM", "result": "ineffective"}, {"measurement": "antimicrobial activity", "setting": "[1]; isolates HL063PA2, HL110PA1, HL110PA4", "result": "did not exhibit significant antimicrobial activity"}, {"measurement": "bactericidal activity", "setting": "[1]; strain HL005PA1", "result": "strongly bactericidal"}, {"measurement": "activity compared with Pentobra", "setting": "[1]; strains HL053PA2 and HL043PA1", "result": "significantly less active"}, {"measurement": "reduction in CFU", "setting": "[2]", "result": "less than ten"}, {"measurement": "change in IL-6, IL-8, TNF-α and IL-12p40 cytokine production", "setting": "[3]", "result": "no significant change"}, {"measurement": "bacterial bioluminescent signal compared to control group", "setting": "[4]", "result": "significantly lower bacterial bioluminescent signal"}, {"measurement": "MIC", "setting": "[5]; isolate S4895552, VSE, LZD-R", "result": "> 274", "unit": "µM"}, {"measurement": "MIC", "setting": "[5]; isolate W7171143,VSE", "result": 68, "unit": "µM"}, {"measurement": "MIC", "setting": "[5]; isolate W7214342,VSE", "result": "> 274", "unit": "µM"}, {"measurement": "MIC", "setting": "[5]; isolate X4540299, VSE", "result": 34, "unit": "µM"}, {"measurement": "MIC (μM) E. coli (mid-log)", "setting": "E. coli", "result": 6.25, "unit": "μM"}, {"measurement": "MIC", "setting": "P. aeruginosa; Pseudomonas aeruginosa, read-out: MIC (μM) P. aeruginosa (stationary)", "result": 6.25, "unit": "µM"}, {"measurement": "MIC (μM) P. aeruginosa (mid-log)", "setting": "P. aeruginosa; mid-log", "result": "0.78-3.12 μM"}, {"measurement": "octanol→water partition coefficient Log P", "setting": "[6]", "result": "−3.41"}]}]}
